Test results taken from US20050143427A1, “[B]-fused bicyclic proline derivatives and their use for treating arthritic conditions” (priority 2003, published 2005).

Columns and labels:
[1] = molecular target: pig alpha-2-delta receptor 1 (A2DR1) (Sus scrofa, UniProt A0A287BIN3); experiment: [3H]Gabapentin scintillant proximity A2DR1 binding assay (A2DR1 SPA, Biological Method 5); conditions: displacement of [3H]-gabapentin
Protocol: (§1) Recombinant HEK 293 cells expressing pig A2DR1 and A2DR2 subunits were grown under normal cell culture conditions (RPMI-1640 media with 10% FBS, 200 μg G418, and 1% penicillin/streptomycin 1t 37° C. with 5% CO2) until reaching confluency in T-75 flasks, at which time they were harvested. The harvested cells were suspended in ice-cold 5 mM Tris/5 mM ethylenediaminetetraacetic acid (“EDTA”) buffer, pH 7.4 (“TE buffer”) containing phenylmethylsulfonyl fluoride (“PMSF”) (0.1 mM) and Roche Complete Protease Inhibitor Cocktail, and allowed to sit on ice for 30 minutes. The cells were broken by sonication using 20 bursts, 40-50 cycles, and then centrifuged at 3000×g for 10 minutes. The resulting supernatant was transferred to a new tube and centrifuged at 50,000×g for 30 minutes. The resulting pellet was resuspended in 10 mM HEPES buffer, pH 7.4, homogenized, and stored at—80° C. The A2DR1 or A2DR2 membrane protein concentration was determined by the Pierce BCA method using bovine serum albumin (“BSA”) as the standard.
(§2) The [^3H]gabapentin SPA binding assay was performed in Costar 3632 96-well, clear bottom assay plates using Wheatgerm agglutinin beads (Amersham Pharmacia Biotech). Pig A2DR1 or A2DR2 membranes (10-20 μg protein per well) prepared above in Step (1) and SPA beads (0.5 mg per well) were mixed with 30 nM [^3H]gabapentin (52 Ci/mmol; Amersham Pharmacia Biotech) in 10 mM HEPES/10 mM MgSO4 assay buffer, pH 7.4 using KOH. The final well volume was 200 μL and non-specific binding was determined in the presence of 10 μM unlabeled pregabalin. The final mixture containing A2DR1 or A2DR2 membrane protein incubated with SPA beads, test compounds, and [^3H]gabapentin was incubated at room temperature for 15-24 hours, and the plates were then counted on a Wallace Trilux 1450 Microbeta scintillation counter. Step (3): Determination of IC50 values
(§3) Curve fitting and IC50 values were calculated using a four-parameter, non-linear regression equation from GraphPad Prism 3.0 software, while Ki values were determined using the equation of Chang and Prussoff.

[2] = molecular target: T1, alpha-2-delta receptor 2 (A2DR2) (Homo sapiens, UniProt Q9NY47); experiment: [3H]Gabapentin A2DR2 binding assay (filter, Biological Method 4); conditions: displacement of [3H]-gabapentin
T1 construct: expressed in transfected cells; host or cells: HEK 293 (membrane preparation)
T1 sequence (Q9NY47 19-1150): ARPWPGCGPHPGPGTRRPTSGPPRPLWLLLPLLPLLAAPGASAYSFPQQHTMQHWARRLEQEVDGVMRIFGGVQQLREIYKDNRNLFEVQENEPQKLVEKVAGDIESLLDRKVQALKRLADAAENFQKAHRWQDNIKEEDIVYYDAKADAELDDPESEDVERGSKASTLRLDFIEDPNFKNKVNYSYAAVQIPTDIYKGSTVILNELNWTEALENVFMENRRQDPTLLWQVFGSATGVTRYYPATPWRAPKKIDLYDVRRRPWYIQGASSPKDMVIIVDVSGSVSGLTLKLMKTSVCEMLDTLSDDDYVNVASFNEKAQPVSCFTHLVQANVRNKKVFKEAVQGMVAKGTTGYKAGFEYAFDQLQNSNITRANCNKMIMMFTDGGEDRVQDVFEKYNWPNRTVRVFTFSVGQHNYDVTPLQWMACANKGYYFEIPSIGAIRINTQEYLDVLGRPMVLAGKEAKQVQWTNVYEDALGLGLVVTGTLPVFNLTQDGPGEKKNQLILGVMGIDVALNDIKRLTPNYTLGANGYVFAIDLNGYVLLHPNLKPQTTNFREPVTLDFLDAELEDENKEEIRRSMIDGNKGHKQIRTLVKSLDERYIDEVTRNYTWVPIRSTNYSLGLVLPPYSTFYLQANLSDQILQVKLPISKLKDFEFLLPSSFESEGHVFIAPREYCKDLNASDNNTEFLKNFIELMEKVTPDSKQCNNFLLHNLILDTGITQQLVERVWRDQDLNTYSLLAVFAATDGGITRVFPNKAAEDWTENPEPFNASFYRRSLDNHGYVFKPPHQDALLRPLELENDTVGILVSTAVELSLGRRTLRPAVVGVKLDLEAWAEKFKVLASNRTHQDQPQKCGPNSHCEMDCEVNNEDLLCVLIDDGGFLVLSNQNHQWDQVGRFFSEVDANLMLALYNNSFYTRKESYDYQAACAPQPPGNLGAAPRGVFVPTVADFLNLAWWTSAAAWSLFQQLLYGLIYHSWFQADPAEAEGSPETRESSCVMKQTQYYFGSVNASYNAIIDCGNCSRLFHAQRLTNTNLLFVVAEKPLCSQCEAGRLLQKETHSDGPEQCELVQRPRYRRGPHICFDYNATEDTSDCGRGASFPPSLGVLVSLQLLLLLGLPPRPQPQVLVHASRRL
Excerpt: (§4) HEK 293 recombinant cells expressing A2DR1 or A2DR2 protein are harvested and washed in phosphate buffered saline (“PBS”). The cells are centrifuged and resuspended in tris(hydroxymethyl)aminomethane-ethylenediaminetetraacetic acid (“Tris-EDTA” or “TE”) buffer containing Roche Complete Protease Inhibitor Cocktail. The cells are homogenized, centrifuged at 3000×g, and the supernatant centrifuged again at 50,000×g. The resulting pellet is resuspended and homogenized in TE. Following determination of A2DR1 or A2DR2 protein concentration, aliquots are stored at −70° C. until the day of testing (membrane preparation may be used for at least 6 months).
(§5) In one version, the binding assay is set up in a 96-well format using deep-well polypropylene plates. In a total volume of 500 μL, the following additions are made: 250 μL buffer [[…] N-2-hydroxyethylpiperazine-N′-2-ethanesulfonic acid (“HEPES”), pH 7.4], 25 μL [3H]gabapentin (10 nM final concentration), 200 μL thawed tissue membrane preparation from Step (1) (˜40 μg protein), and 25 μL of test compound at 7 test dilutions (for example, 0.001, 0.01, 0.03, 0.1, 0.3, 1.0, and 10 μM concentrations). Non-specific binding for each plate is determined by the addition of 10 μM of pregabalin instead of test compound in a few of the 96 wells. Following incubation for 45 minutes at 21° C., the contents of the wells are filtered under vacuum onto glass filter/B (“GF/B”) filter mats and then washed 4×1 mL with chilled 50 mM tris(hydroxymethyl)aminomethane (“Tris”) HCl, pH 6.9. The mats are placed into plastic pouches, scintillation cocktail is added, the pouches are sealed, and radioactivity for each sample is counted.
(§6) Specific binding values for each concentration are transformed and then analyzed by a 4-parameter nonlinear regression equation provided by Prism graphics software by Graph Pad to determine IC50 values by conventional means.

[3] = tested on: MIA Rat (monosodium iodoacetate-induced osteoarthritis, right knee joint); experiment: Monosodium iodoacetate-induced osteoarthritis in rat model of joint cartilage damage (MIA Rat); type: in vivo; conditions: 10 mg/kg/day via osmotic pump, 2-week MIA study, Day 14, rat
Excerpt: One end result of the induction of osteoarthritis in this model, as determined by histologic analysis, is the development of an osteoarthritic condition within the affected joint, as characterized by the loss of Toluidine blue staining and formation of osteophytes. Associated with the histologic changes is a concentration-dependent degradation of joint cartilage, as evidenced by affects on hind-paw weight distribution of the limb containing the affected joint, the presence of increased amounts of proteoglycan or hydroxyproline in the joint upon biochemical analysis, or histopathological analysis of the osteoarthritic lesions.
The invention compounds typically are not effective for relieving joint pain when administered in an acute model, such as the instant MIA Rat model, which has a duration of just 14 or 28 days.
Generally, In the MIA Rat model on Day 0, the hind-paw weight differential between the right arthritic joint and the left healthy joint of male Wistar rats (150 g) are determined with an incapacitance tester, model 2KG (Linton Instrumentation, Norfolk, United Kingdom). The incapacitance tester has a chamber on top with an outwardly sloping front wall that supports a rat's front limbs, and two weight sensing pads, one for each hind paw, that facilitates this determination. Then the rats are anesthetized with isofluorine, and the right, hind leg knee joint is injected with 1.0 mg of mono-iodoacetate (“MIA”) through the infrapatellar ligament. Injection of MIA into the joint results in the inhibition of glycolysis and eventual death of surrounding chondrocytes. The rats are further administered either an invention compound or vehicle (in the instant case, water) daily for 14 days or 28 days.
The invention compound is typically administered at a dose of 30 mg of per kilogram of rat per day (30 mg/kg/day), but may be administered at other doses such as, for example, 10 mg/kg/day, 60 mg/kg/day, 90-mg/kg/day, or 100 mg/kg/day according to the requirements of the invention compound being studied. It is well within the level of ordinary skill in the pharmaceutical arts to determine a proper dosage of an invention compound in this model.
Administration of an invention compound in this model is optionally by oral administration or by intravenous administration via an osmotic pump. After 7 and 14 days for a two week study, or 7, 14, and 28 days for a four week study, the hind-paw weight distribution is again determined. Typically, the animals administered vehicle alone place greater weight on their unaffected left hind paw than on their right hind paw, while animals administered an invention compound show a more normal (i.e., more like a healthy animal) weight distribution between their hind paws. This change in weight distribution was proportional to the degree of joint cartilage damage. Percent inhibition of a change in hind paw joint function is calculated as the percent change in hind-paw weight distribution for treated animals versus control animals. For example, for a two week study, [formula] wherein: ΔWC is the hind-paw weight differential between the healthy left limb and the arthritic limb of the control animal administered vehicle alone, as measured on Day 14; and • ΔWG is the hind-paw weight differential between the healthy left limb and the arthritic limb of the animal administered an invention compound as measured on Day 14.
In order to measure biochemical or histopathological end points in the MIA Rat model, some of the animals in the above study may be sacrificed, and the amounts of free proteoglycan in both the osteoarthritic right knee joint and the contralateral left knee joint may be determined by biochemical analysis. The amount of free proteoglycan in the contralateral left knee joint provides a baseline value for the amount of free proteoglycan in a healthy joint. […]

[4] = molecular target: pig alpha-2-delta receptor 2 (A2DR2) (UniProt A0A8W4FF87); experiment: [3H]Gabapentin scintillant proximity A2DR2 binding assay (A2DR2 SPA, Biological Method 5); conditions: displacement of [3H]-gabapentin
Protocol: as §1, §2, §3

[5] = molecular target: alpha-2-delta receptor 1 (A2DR1) (Homo sapiens, UniProt P54289); experiment: [3H]Gabapentin A2DR1 binding assay (filter, Biological Method 4); conditions: displacement of [3H]-gabapentin
Chain of alpha-2-delta receptor 1 (A2DR1) (P54289 25-1103): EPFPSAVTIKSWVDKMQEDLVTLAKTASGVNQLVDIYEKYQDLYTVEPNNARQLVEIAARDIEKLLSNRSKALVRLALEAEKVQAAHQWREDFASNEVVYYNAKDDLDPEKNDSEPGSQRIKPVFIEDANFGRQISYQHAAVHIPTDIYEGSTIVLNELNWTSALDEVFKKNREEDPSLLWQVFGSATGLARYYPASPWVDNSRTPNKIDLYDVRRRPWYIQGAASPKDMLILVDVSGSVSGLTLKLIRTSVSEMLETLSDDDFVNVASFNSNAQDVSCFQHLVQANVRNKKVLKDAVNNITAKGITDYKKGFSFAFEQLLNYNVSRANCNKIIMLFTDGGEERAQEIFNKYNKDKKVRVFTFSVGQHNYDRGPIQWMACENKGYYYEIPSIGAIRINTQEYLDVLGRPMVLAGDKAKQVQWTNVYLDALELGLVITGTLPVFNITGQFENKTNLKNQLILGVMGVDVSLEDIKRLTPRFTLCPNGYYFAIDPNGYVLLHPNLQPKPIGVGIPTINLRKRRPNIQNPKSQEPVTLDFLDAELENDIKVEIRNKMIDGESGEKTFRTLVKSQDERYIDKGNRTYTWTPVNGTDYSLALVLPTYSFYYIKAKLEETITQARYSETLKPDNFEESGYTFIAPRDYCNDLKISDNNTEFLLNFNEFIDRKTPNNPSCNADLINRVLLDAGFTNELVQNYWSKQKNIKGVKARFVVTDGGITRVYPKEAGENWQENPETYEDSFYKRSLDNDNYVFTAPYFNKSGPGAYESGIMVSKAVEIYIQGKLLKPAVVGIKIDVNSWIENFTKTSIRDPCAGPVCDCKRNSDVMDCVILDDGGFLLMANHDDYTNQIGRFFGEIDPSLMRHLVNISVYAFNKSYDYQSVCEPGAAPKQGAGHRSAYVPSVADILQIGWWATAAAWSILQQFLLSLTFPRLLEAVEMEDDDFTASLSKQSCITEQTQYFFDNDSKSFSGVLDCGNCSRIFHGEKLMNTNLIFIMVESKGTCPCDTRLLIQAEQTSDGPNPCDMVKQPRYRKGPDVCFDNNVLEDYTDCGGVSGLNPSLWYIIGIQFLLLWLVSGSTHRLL
Excerpt: as §4, §5, §6

Chain of pig alpha-2-delta receptor 1 (A2DR1) (A0A287BIN3 1-1109): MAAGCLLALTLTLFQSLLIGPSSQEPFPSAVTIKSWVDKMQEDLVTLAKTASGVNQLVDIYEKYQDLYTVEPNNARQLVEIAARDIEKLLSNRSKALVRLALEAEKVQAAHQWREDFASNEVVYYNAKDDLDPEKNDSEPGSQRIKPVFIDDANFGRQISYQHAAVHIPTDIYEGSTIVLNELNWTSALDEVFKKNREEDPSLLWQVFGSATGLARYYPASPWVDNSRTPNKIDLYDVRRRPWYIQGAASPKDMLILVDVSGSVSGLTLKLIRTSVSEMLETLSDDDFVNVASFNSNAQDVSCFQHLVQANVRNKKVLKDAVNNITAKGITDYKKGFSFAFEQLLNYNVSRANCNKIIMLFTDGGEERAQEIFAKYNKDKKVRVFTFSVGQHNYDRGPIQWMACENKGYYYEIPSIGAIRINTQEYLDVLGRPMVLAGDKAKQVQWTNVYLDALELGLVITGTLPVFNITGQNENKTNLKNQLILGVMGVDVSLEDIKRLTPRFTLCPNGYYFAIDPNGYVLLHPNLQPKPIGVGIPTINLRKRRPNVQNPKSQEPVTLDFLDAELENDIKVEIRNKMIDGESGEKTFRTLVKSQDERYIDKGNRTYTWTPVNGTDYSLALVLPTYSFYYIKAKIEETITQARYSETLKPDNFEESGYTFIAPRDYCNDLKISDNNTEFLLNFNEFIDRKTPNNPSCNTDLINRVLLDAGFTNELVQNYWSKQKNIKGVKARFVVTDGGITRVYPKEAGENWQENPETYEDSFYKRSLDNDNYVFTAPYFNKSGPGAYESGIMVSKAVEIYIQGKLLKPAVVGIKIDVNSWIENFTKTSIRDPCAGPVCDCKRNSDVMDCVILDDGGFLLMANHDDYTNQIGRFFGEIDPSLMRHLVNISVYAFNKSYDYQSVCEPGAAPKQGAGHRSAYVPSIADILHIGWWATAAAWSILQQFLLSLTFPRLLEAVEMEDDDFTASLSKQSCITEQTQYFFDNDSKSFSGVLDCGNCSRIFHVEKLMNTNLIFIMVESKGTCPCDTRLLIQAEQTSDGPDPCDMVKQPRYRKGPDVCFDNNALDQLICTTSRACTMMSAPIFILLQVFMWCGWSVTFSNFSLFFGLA

melting point | Structure (SMILES) | IC50 [1] | IC50 [2] | % I @ 10 mg/kg/day (%) (± SEM): inhibition of loss of hind limb joint function in MIA at Day 14 [3] | IC50 [4] | IC50 [5]
240 °C (dec.) | C1CC[C@@H]2N[C@H](c3nnn[nH]3)C[C@@H]2C1 | – | – | – | – | –
188 to 190 °C | CCC1CC[C@@H]2C[C@@H](C(=O)O)N[C@@H]2C1.Cl (stereo partly drawn) | – | – | – | – | –
200 to 205 °C | O=C(O)[C@@H]1C[C@H]2CCC(c3ccccc3)C[C@H]2N1 (stereo partly drawn) | – | – | – | – | –
189 to 195 °C | CN(C)CCOC(=O)[C@@H]1C[C@@H]2CCCC[C@@H]2N1.Cl | – | – | – | – | –
– | CN1C(C(=O)O)C[C@@H]2CCCC[C@@H]21 (mixture of isomers) [Example A4] | ≥ 10 µM | ≥ 10 µM | 67 ± 8% | ≥ 10 µM | –
– | CC1(C(=O)O)C[C@@H]2CCCC[C@@H]2N1 (mixture of isomers) [Example B2] | ≥ 10 µM | ≥ 10 µM | 58 ± 12% | ≥ 10 µM | 2.83 µM
247 to 249 °C | O=C(NS(=O)(=O)C(F)(F)F)[C@@H]1C[C@@H]2CCCC[C@@H]2N1 [Example E3] | – | ≥ 10 µM | – | – | ≥ 10 µM
189 to 192 °C | CN1[C@H](C(=O)NS(=O)(=O)C(F)(F)F)C[C@@H]2CCCC[C@@H]21 [Example E4] | – | ≥ 10 µM | – | – | ≥ 10 µM
– | CC1CCC2NC(C(=O)O)CC2C1 (stereo not drawn) [Example O5] | 2.8 µM | 0.29 µM | −32 ± 20% | ≥ 10 µM | 0.11 µM
– | O=C(NC1CCC2NC(C(=O)O)CC2C1)C1CCCCC1 (stereo not drawn) [Example O6] | – | ≥ 10 µM | −48 ± 10% | – | ≥ 10 µM
– | NC1CCC2NC(C(=O)O)CC2C1 (stereo not drawn) [Example O7] | – | ≥ 10 µM | −63 ± 14% | – | ≥ 10 µM
